Experiments:
Assay type in all cases: cell-based
[1] = test system: SNU466; test: alamarBlue cell viability (survival rate), SNU466; details: SNU466 (glioblastoma), compound 10 µM, 48 hours
Source text: (§1) A p-value < 0.05 was considered statistically significant.

[2] = test system: HepG2; test: alamarBlue cell viability (survival rate), HepG2; details: HepG2 (liver cancer), compound 10 µM, 48 hours
Source text: as §1

[3] = test system: 23132/87 cell line; test: Cell cycle distribution (PI/RNase staining, flow cytometry), 23132/87; details: 48 hours
Description: Cell cycle distribution was analyzed by DNA staining using FxCycle PI/RNase Staining Solution (Invitrogen, USA). The 23132/87 and SW48 cell lines was seeded at densities of 5 × 10^5 and 7 × 10^5cells/well, respectively, in 6-well plates. After 24 hours of culture, cells were starved overnight in serum-free medium. […] Cells were then harvested, fixed with 70% ethanol, and stained with PI/RNase solution. Samples were analyzed by flow cytometry (BD FACSVerse Cell Analyzer and FlowJo software, BD Biosciences, Franklin Lakes, NJ, USA) based on 10,000 events.
Student's t-test was performed for statistical analysis between the 2 concentrations of the same compound.

[4] = test system: 23132/87; test: alamarBlue cell viability (survival rate, IC50), 23132/87; details: 23132/87 (gastric cancer)
Source text: as §1

Question: `C=CCc1cc(OC)c(O[C@H](C)[C@H](c2ccc(O)c(OC)c2)c2ccc(O)c(C(=O)CCCCCCCCc3ccc(O)cc3)c2O)c(OC)c1` [Compound 3, Myricone C] was tested. Which “Cancer cell line survival rate (%)” value [1] did it give?
Answer: Its value is 1.91%.

Question: And the “Cancer cell line survival rate (%)” value [2]?
Answer: Its value is 1.60%.

Question: And the “Cell cycle distribution, G1” value ([3]; 23132/87, 5 µM)?
Answer: The value was 63.00%.

Question: What about the “Cell cycle distribution, G2/M” value ([3]; 23132/87, 5 µM) of the same compound?
Answer: Its value is 6.79%.

Question: What about the “Cell cycle distribution, S” value ([3]; 23132/87, 5 µM) of the same compound?
Answer: Its value is 21.23%.

Question: And the “Cell cycle distribution, Sub G1” value ([3]; 23132/87, 5 µM)?
Answer: Its value is 9.15%.

Question: And the “Cell cycle distribution, G1” value ([3]; 23132/87, 10 µM)?
Answer: The value was 68.93%.

Question: What about the “Cell cycle distribution, G2/M” value ([3]; 23132/87, 10 µM) of the same compound?
Answer: The value was 6.19%.

Question: What about the “Cell cycle distribution, S” value ([3]; 23132/87, 10 µM) of the same compound?
Answer: The value was 14.40%.

Question: And the “Cell cycle distribution, Sub G1” value ([3]; 23132/87, 10 µM)?
Answer: Its value is 10.45%.

Question: And the “G1 phase increase compared to DMSO” value ([3]; 23132/87, 10 µM)?
Answer: Its value is “about 10%”.

Question: And the “G2/M phase decrease compared to DMSO” value ([3]; 23132/87, 10 µM)?
Answer: The value was “about 4%”.

Question: And the IC50 ([4]; 2.5-40 µM, positive control = doxorubicin)?
Answer: The IC50 was 2.07 µM.

Question: And the “Cancer cell line survival rate (%)” value ([4]; compound 10 µM, 48 hours)?
Answer: The value was 1.77%.
